Measurements taken from ChEMBL document CHEMBL1201862, “PubChem BioAssay data set” (2004).
Calls of active or inactive are those of the source. Rule as the data show it: actives have a measured EC50 and inactives only a lower limit.

Experiments:
Streptococcus = experiment: Group A Streptococcus viability loss, dose response, counter-screen for streptokinase expression inhibitor project, luminescence, BacTiterGlo (AID 1915); format: functional, organism-based;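 also: potency for reduction of bacterial viability or growth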
Streptokinase A = target: T1, Streptokinase A (Streptococcus pyogenes serotype M1, UniProt P10520); experiment: S. pyogenes streptokinase expression inhibitors, potency, dose response, plasminogen activation absorbance, OD405 (AID 1914); format: functional, Streptococcus pyogenes M1 GAS;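 also: secreted streptokinase activity via plasminogen activation per viability signal from cell pellet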
T1 sequence (P10520 whole entry): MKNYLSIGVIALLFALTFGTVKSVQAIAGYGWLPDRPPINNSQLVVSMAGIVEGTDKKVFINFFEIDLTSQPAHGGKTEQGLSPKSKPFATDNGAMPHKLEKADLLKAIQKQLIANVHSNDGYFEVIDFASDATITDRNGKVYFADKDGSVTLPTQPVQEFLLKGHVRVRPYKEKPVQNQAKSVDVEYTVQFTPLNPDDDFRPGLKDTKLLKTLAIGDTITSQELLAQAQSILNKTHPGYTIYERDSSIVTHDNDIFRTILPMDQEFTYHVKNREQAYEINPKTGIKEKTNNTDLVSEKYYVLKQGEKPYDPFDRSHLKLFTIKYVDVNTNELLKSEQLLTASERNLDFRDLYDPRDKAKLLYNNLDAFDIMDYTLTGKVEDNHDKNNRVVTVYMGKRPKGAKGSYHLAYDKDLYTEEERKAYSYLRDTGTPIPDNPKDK

[1] = tested on: Streptococcus sp. 'group A'; experiment: growth inhibition of control SK(-) GAS strain, dose response, counter-screen for streptokinase expression inhibitor project, luminescence, kanamycin, BacTiterGlo, confirmation (AID 1900); format: functional, organism-based
[2] = target: T2, Corticotropin-releasing factor receptor 2/Corticotropin-releasing factor-binding protein (Homo sapiens, UniProt P24387+Q13324); experiment: activators of CRF receptor 2 with binding protein – uHTS hits, confirmation (AID 602473); format: functional; details: read-out: EC50_Mean
T2 sequence (Q13324 whole entry): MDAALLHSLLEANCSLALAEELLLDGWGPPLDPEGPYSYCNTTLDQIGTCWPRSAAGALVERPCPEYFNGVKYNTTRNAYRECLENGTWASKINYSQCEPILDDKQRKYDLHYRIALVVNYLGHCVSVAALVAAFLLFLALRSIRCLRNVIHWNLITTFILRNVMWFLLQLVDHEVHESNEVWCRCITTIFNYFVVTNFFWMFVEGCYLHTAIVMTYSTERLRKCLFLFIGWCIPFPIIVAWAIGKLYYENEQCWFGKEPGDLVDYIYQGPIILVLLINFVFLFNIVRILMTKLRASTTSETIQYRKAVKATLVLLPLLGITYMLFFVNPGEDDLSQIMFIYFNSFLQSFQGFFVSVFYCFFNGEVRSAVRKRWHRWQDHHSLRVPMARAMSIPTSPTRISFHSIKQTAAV
T2 sequence (P24387 whole entry): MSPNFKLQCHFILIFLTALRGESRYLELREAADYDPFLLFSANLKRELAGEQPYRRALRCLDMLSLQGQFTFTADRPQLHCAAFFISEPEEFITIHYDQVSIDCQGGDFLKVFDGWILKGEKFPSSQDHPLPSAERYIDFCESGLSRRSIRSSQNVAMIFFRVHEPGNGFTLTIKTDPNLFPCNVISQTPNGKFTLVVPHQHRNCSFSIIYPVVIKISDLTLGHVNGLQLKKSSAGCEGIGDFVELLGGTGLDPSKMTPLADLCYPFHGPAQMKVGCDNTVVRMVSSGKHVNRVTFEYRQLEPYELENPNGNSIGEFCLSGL

[3] = inhibitors of intracellular T. cruzi replication, confirmation, NIH3T3 host cells, beta-gal luminescence (AID 2044); format: functional, cell-based;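 also: intracellular parasites grown in NIH/3T3 mouse fibroblasts as host cells; luminescent beta-galactosidase reporter signal from transgenic T. cruzi replicating inside host cells; inhibitors lower the luminescence signal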
[4] = cytotoxicity toward NIH3T3 fibroblasts, dose response, counter-screen, cell-based, ATP luminescence, mouse fibroblasts (AID 2010); format: functional;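 also: cells exposed to compound for about 90 hours before reading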
Protein RecA = target: T3, Protein RecA (Mycobacterium tuberculosis, UniProt P9WHJ3); experiment: Fluorescence Cell-Free Homogeneous Dose Retest to Identify Inhibitors of RecA-Intein Splicing Activity. [Related pubchem assays (depositor defined):AID2097, AID2223, AID489010, AID492950]; format: functional
T3 sequence (P9WHJ3 whole entry): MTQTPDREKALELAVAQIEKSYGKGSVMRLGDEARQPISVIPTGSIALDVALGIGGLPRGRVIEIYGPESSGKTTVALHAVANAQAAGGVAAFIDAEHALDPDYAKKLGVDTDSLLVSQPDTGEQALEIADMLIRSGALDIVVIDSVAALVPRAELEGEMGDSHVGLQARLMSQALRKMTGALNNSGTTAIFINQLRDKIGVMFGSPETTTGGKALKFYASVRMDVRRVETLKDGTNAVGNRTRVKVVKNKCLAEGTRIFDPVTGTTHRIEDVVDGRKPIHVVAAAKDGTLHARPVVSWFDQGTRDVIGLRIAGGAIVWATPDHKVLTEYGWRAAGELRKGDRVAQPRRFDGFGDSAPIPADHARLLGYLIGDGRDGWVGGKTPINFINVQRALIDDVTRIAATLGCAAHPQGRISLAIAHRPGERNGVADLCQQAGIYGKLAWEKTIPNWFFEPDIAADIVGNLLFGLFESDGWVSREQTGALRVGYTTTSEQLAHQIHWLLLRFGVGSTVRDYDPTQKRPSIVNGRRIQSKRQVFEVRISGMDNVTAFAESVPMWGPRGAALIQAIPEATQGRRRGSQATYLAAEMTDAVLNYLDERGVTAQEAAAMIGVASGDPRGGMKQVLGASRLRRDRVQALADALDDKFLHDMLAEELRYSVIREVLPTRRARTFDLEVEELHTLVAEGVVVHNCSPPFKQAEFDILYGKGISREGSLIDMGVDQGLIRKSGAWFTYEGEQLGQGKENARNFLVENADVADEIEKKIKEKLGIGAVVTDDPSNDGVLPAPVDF

| Compound | EC50 (Streptococcus) | EC50 (Streptokinase A) | EC50 [1] | EC50 [2] | also measured |
| --- | --- | --- | --- | --- | --- |
| Cc1ccc(C(=O)Nc2nnc(S(=O)(=O)N3CCN(c4ccc(F)cc4)CC3)s2)cc1 | 109 µM (active) | > 150 µM (not active) | – | – | – |
| O=C(COc1cccc(Cl)c1)Nc1ccccc1N1CCCCC1 | > 150 µM (not active) | 11.1 µM (active) | 21.1 µM (active) | – | – |
| COc1ccc(C(=O)Cn2cnc3ccccc3c2=O)c(OC)c1 | – | – | – | > 53 µM (inactive) | – |
| COc1ccc(CN(C2CCCCC2C)S(=O)(=O)c2ccc(S(=O)(=O)N(C)C)cc2)cc1OC (configuration not stated) | – | – | – | 5.42 µM (active) | – |
| Cc1nc2c(C)cccn2c(=O)c1NC(=O)c1ccc2c(c1)OCO2 | > 150 µM (not active) | > 150 µM (not active) | > 150 µM (not active) | – | – |
| COc1ccc(NC(=N)SCc2ccccn2)cc1 | – | – | – | 15.6 µM (active) | – |
| Cc1ccsc1C(=O)N(c1nc2ccccc2s1)c1c(C)cccc1C | > 150 µM (not active) | 7.09 µM (inconclusive) | 16.7 µM (active) | – | – |
| Cc1ccc(S(=O)(=O)N2CCN(c3ncnc4scc(-c5ccccc5)c34)CC2)cc1 | – | – | – | 2.65 µM (active) | – |
| COc1ccc(CNS(=O)(=O)NCc2ccccc2)cc1OC | – | – | – | > 53 µM (inactive) | – |
| CC(C)(C)c1ccccc1OCCCCCn1ccnc1 | > 150 µM (not active) | > 150 µM (not active) | 19.1 µM (active) | – | EC50 [3]: 1.32 µM (active); EC50 [4]: > 60 µM (not active) |
| O=C(c1ccc(S(=O)(=O)Nc2ccccc2)cc1)N1CCCC(C(F)(F)F)C1 (configuration not stated) | – | – | – | 10.5 µM (active) | – |
| CCN=C(S)N(CCc1ccc(S(N)(=O)=O)cc1)C1CC(=O)N(c2ccccc2)C1=O (configuration not stated) | – | – | – | 18.5 µM (active) | – |
| CC1(c2ccc(OC(F)F)cc2)NC(=O)N(CC(=O)Nc2ccc3c(c2)OCO3)C1=O (configuration not stated) | – | – | – | 5.24 µM (active) | – |
| FC(F)(F)c1cccc(Nc2nc(N3CCCC3)nc(N3CCCC3)n2)c1 | 9.85 µM (active) | 17.5 µM (inconclusive) | 4.06 µM (active) | – | – |
| CCOc1ccc2c(c1)c1nnc(SCC(=O)N3CCC(C)CC3)nc1n2C | > 150 µM (not active) | > 150 µM (not active) | 24.2 µM (active) | – | – |
| Cc1ccc(N(Cc2cc(=O)[nH]c3ccccc23)C(=O)CCl)cc1 | – | – | – | – | EC50 (Protein RecA): > 380 µM (inconclusive) |

| Compound | EC50 (Streptococcus) | EC50 (Streptokinase A) | EC50 [1] | EC50 [2] | also measured |
| --- | --- | --- | --- | --- | --- |
| Cc1ccc2c(c1)C(=O)CC1(CCC(C(C)(C)C)CC1)O2 (configuration not stated) | 14.2 µM (active) | 12.6 µM (active) | 9.31 µM (active) | – | – |
| O=C(NC(=S)Nc1ccc(Cl)c(C(=O)O)c1)c1cccc(COc2ccccc2)c1 | > 150 µM (not active) | > 150 µM (not active) | 13 µM (active) | – | – |
| CCCCCCCCCCC(=O)NNC(=O)c1c(O)c2ccccc2n(CC)c1=O | 4.38 µM (active) | > 150 µM (not active) | 0.337 µM (active) | – | – |
| CCOC(=O)c1ccc(CNC(=O)Cn2nnc(-c3ccccc3)n2)o1 | – | – | – | > 53 µM (inactive) | – |
| O=C(CSC(=S)N1CCCCC1)Nc1nc(-c2ccccc2)c(-c2ccccc2)o1 | > 150 µM (not active) | > 150 µM (not active) | 1.51 µM (active) | – | – |
| CCCn1c(=O)c(C(=O)NNC(=O)c2ccccc2Cl)c(O)c2ccccc21 | – | – | – | 5.81 µM (active) | – |
| CCO/C=C1/C(=O)N(C)C(=O)c2cc(OC)ccc21 | – | – | – | – | EC50 (Protein RecA): > 380 µM (inactive) |
| CCOC(=O)c1cnc(-n2nc(C)cc2C)nc1N(CC)CC | > 150 µM (not active) | > 150 µM (not active) | 25.3 µM (active) | – | – |
| COc1ccc(-c2coc3c(C)c4oc(=O)c(CCC(=O)O)c(C)c4cc23)cc1 | 15.4 µM (active) | > 150 µM (not active) | 3.74 µM (active) | – | – |
| CCCn1c(NC(=O)C23CC4CC(CC(O)(C4)C2)C3)nc2ccccc21 | > 150 µM (not active) | > 150 µM (not active) | – | – | – |
| Cc1nn(C)c(C(=O)N/N=C/c2cccc(Oc3ccccc3)c2)c1Br | – | – | – | > 53 µM (inactive) | – |
| CC(=O)Nc1ccc(/C=N/N2C(=O)NC(C)(c3ccc(OC(F)F)cc3)C2=O)cc1 (configuration not stated) | – | – | – | 1.37 µM (active) | – |
| CC(=O)Oc1ccc(/C=N/NS(=O)(=O)c2ccccc2)cc1 | > 150 µM (not active) | > 150 µM (not active) | > 150 µM (not active) | – | – |
| Cc1cc(Br)c(OCc2ccc(C(=O)N/N=C3\CC4CC=CC34)cc2)c(Br)c1 (configuration not stated) | 44.5 µM (active) | > 150 µM (not active) | 4.08 µM (active) | – | – |
| CC(=N)/C(C#N)=C(/O)CSc1nc2cc(Cl)ccc2c(=O)n1Cc1ccco1 | 16.2 µM (active) | > 150 µM (not active) | 11.8 µM (active) | – | EC50 [3]: 3.43 µM (active); EC50 [4]: > 60 µM (inconclusive) |
| C/C(=N\NC(=O)c1ccc(Cl)c(Cl)c1)c1ccc(Br)s1 | 14.7 µM (active) | > 150 µM (not active) | 2.12 µM (active) | – | EC50 [3]: 0.597 µM (active); EC50 [4]: 8.11 µM (active) |
